Measured values reported in patent US7851474B2, “Dipiperazinyl ketones and related analogues” (Neurogen Corporation, priority 2005, dated 2010).
Where two headings read alike, the source gives them in different places.

Biological target: T1, chimeric human H3 receptor (Homo sapiens, UniProt Q9Y5N1, E19D)
T1 construct: made in house; host or cells: Sf9 insect cells (baculovirus infection); P2 membrane preparation
Experiment: Chimeric human H3 receptor screening GTP binding assay (inhibition of histamine-stimulated GTP-gamma35S binding, Example 8)
Assay type: biochemical
Settings: 1 h, read-out: percent inhibition of agonist-induced GTP-gammaS binding to H3
Outline: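 Data are percent inhibition of the 1 μM histamine-stimulated GTP-gamma35S (125 pM) binding, after non-specific binding (10 uM GTP-gammaS) is subtracted. Test compound at 4 μM. Incubation was 60 min at room temperature with Sf9 membranes bearing receptor plus G-protein subunits, buffer pH 7.4 with 10 μM GDP, and filtration read-out.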

[1] = "+" in Ki of Table II, assay of Example 8
[2] = Table II, "+" in the column headed Ki, assay of Example 8
[3] = assay described in Example 8, symbol + in column headed Ki of Table II
[4] = Table II "Ki", symbol "+": assay described in Example 8

T1 sequence (Q9Y5N1 with tags, fused parts or gaps E19D): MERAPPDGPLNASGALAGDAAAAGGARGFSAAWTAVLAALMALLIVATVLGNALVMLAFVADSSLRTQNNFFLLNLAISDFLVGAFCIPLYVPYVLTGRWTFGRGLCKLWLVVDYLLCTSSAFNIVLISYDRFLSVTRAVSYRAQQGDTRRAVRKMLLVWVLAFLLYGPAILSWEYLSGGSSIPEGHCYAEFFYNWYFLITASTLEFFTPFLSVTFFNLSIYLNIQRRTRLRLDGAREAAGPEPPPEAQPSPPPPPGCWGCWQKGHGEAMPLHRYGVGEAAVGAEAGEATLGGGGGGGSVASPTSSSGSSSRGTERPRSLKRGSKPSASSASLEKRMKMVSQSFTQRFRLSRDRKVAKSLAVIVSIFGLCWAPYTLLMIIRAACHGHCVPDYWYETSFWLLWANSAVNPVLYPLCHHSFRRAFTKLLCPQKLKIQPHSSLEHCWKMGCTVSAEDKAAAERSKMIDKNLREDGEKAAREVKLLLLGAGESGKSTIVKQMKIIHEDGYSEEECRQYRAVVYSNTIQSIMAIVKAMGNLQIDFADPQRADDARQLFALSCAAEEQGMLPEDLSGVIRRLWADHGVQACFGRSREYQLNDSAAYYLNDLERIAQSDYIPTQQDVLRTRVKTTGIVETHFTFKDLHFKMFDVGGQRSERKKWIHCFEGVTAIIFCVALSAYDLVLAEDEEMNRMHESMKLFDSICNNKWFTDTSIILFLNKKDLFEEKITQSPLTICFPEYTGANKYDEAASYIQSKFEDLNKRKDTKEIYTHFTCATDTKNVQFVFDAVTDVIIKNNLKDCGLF

Row | SMILES | inhibition at 4 µM [1] | inhibition at 4 µM [2] | also measured
1 | Cc1ccc(C(C(=O)N2CCN(CC(=O)N3CCN(C4CCC4)CC3)CC2)c2ccccc2)cc1 (stereo not shown) [Compound 565, 1-cyclobutyl-4-({4-[(4-methylphenyl)(phenyl)acetyl]piperazin-1-yl}acetyl)piperazine] | > 90% | – | –
2 | O=C(CN1CCN(C(=O)c2ccncc2)CC1)N1CCN(C2CCC2)CC1 [Compound 655, 1-cyclobutyl-4-[(4-isonicotinoylpiperazin-1-yl)acetyl]piperazine] | – | > 90% | –
3 | COc1ccc(C(=O)N2CCN(CC(=O)N3CCN(C4CCC4)CC3)CC2)c(OC)c1 [Compound 677, 1-cyclobutyl-4-{[4-(2,4-dimethoxybenzoyl)piperazin-1-yl]acetyl}piperazine] | – | > 90% | –
4 | O=C(CN1CCN(C(=O)c2c(F)cccc2Cl)CC1)N1CCN(C2CCC2)CC1 [Compound 274, 1-(2-chloro-6-fluorobenzoyl)-4-[2-(4-cyclobutylpiperazin-1-yl)-2-oxoethyl]piperazine] | – | – | inhibition at 4 µM [3]: > 90%
5 | COc1cc(CC(=O)N2CCN(CC(=O)N3CCN(C4CCC4)CC3)CC2)cc(OC)c1 [Compound 548, 1-cyclobutyl-4-({4-[(3,5-dimethoxyphenyl)acetyl]piperazin-1-yl}acetyl)piperazine] | > 90% | – | –
6 | O=C(/C=C/c1ccccc1)N1CCN(CC(=O)N2CCN(C3CCC3)CC2)CC1 [Compound 532, 1-cyclobutyl-4-({4-[(2E)-3-phenylprop-2-enoyl]piperazin-1-yl}acetyl)piperazine] | > 90% | – | –
7 | COc1ccccc1/C=C/C(=O)N1CCN(CC(=O)N2CCN(C3CCC3)CC2)CC1 [Compound 525, 1-cyclobutyl-4-({4-[(2E)-3-(2-methoxyphenyl)prop-2-enoyl]piperazin-1-yl}acetyl)piperazine] | > 90% | – | –
8 | Cc1nnsc1C(=O)N1CCN(CC(=O)N2CCN(C3CCC3)CC2)CC1 [Compound 564, 1-cyclobutyl-4-({4-[(4-methyl-1,2,3-thiadiazol-5-yl)carbonyl]piperazin-1-yl}acetyl)piperazine] | > 90% | – | –
9 | O=C(CN1CCN(C(=O)c2ccccc2Oc2ccc(Cl)cc2)CC1)N1CCN(C2CCC2)CC1 [Compound 419, 1-[2-(4-chlorophenoxy)benzoyl]-4-[2-(4-cyclobutylpiperazin-1-yl)-2-oxoethyl]piperazine] | – | – | inhibition at 4 µM [3]: > 90%
10 | Cc1cc(C(=O)N2CCN(CC(=O)N3CCN(C4CCC4)CC3)CC2)ccc1Cl [Compound 348, 1-(4-chloro-3-methylbenzoyl)-4-[2-(4-cyclobutylpiperazin-1-yl)-2-oxoethyl]piperazine] | – | – | inhibition at 4 µM [3]: > 90%
11 | O=C(CN1CCN(C(=O)c2ccc(-c3ccccc3)cc2)CC1)N1CCN(C2CCC2)CC1 [Compound 376, 1-(biphenyl-4-ylcarbonyl)-4-[2-(4-cyclobutylpiperazin-1-yl)-2-oxoethyl]piperazine] | – | – | inhibition at 4 µM [3]: > 90%
12 | Cc1cccc(C)c1C(=O)N1CCN(CC(=O)N2CCN(C3CCC3)CC2)CC1 [Compound 696, 1-cyclobutyl-4-{[4-(2,6-dimethylbenzoyl)piperazin-1-yl]acetyl}piperazine] | – | > 90% | –
13 | Cc1cc(C(=O)N2CCN(CC(=O)N3CCN(C4CCC4)CC3)CC2)c(C)o1 [Compound 688, 1-cyclobutyl-4-{[4-(2,5-dimethyl-3-furoyl)piperazin-1-yl]acetyl}piperazine] | – | > 90% | –
14 | O=C(CN1CCN(C(=O)c2ccc(F)c(F)c2)CC1)N1CCN(C2CCC2)CC1 [Compound 729, 1-cyclobutyl-4-{[4-(3,4-difluorobenzoyl)piperazin-1-yl]acetyl}piperazine] | – | > 90% | –
15 | COc1ccc(C(=O)N2CCN(CC(=O)N3CCN(C4CCC4)CC3)CC2)cc1F [Compound 748, 1-cyclobutyl-4-{[4-(3-fluoro-4-methoxybenzoyl)piperazin-1-yl]acetyl}piperazine] | – | > 90% | –
16 | O=C(CN1CCN(C(=O)c2c(F)cccc2C(F)(F)F)CC1)N1CCN(C2CCC2)CC1 [Compound 582] | – | > 90% | –
17 | CCCCc1ccc(C(=O)N2CCN(CC(=O)N3CCN(C4CCC4)CC3)CC2)nc1 [Compound 412, 1-[(5-butylpyridin-2-yl)carbonyl]-4-[2-(4-cyclobutylpiperazin-1-yl)-2-oxoethyl]piperazine] | – | – | inhibition at 4 µM [3]: > 90%
18 | O=C(CN1CCN(C(=O)c2ccc(Cl)s2)CC1)N1CCN(C2CCC2)CC1 [Compound 414, 1-[(5-chloro-2-thienyl)carbonyl]-4-[2-(4-cyclobutylpiperazin-1-yl)-2-oxoethyl]piperazine] | – | – | inhibition at 4 µM [3]: > 90%
19 | O=C(CN1CCN(C(=O)C(c2ccccc2)C2CCCC2)CC1)N1CCN(C2CCC2)CC1 (stereo not shown) [Compound 613, 1-cyclobutyl-4-({4-[cyclopentyl(phenyl)acetyl]piperazin-1-yl}acetyl)piperazine] | – | > 90% | –

Row | SMILES | inhibition at 4 µM [1] | inhibition at 4 µM [2] | also measured
20 | O=C(/C=C/c1ccc(Cl)c(Cl)c1)N1CCN(CC(=O)N2CCN(C3CCC3)CC2)CC1 [Compound 527, 1-cyclobutyl-4-({4-[(2E)-3-(3,4-dichlorophenyl)prop-2-enoyl]piperazin-1-yl}acetyl)piperazine] | > 90% | – | –
21 | O=C(Cc1ccc(Cl)cc1Cl)N1CCN(CC(=O)N2CCN(C3CCC3)CC2)CC1 [Compound 505, 1-cyclobutyl-4-({4-[(2,4-dichlorophenyl)acetyl]piperazin-1-yl]acetyl)piperazine] | > 90% | – | –
22 | Cc1ccccc1C(C(=O)N1CCN(CC(=O)N2CCN(C3CCC3)CC2)CC1)C(C)C (stereo not shown) [Compound 591, 1-cyclobutyl-4-({4-[3-methyl-2-(2-methylphenyl)butanoyl]piperazin-1-yl}acetyl)piperazine] | – | > 90% | –
23 | CCn1nc(C)c(Br)c1C(=O)N1CCN(CC(=O)N2CCN(C3CCC3)CC2)CC1 [Compound 402, 1-[(4-bromo-1-ethyl-3-methyl-1H-pyrazol-5-yl)carbonyl]-4-[2-(4-cyclobutylpiperazin-1-yl)-2-oxoethyl]piperazine] | – | – | inhibition at 4 µM [3]: > 90%
24 | O=C(/C=C/c1cccc(F)c1F)N1CCN(CC(=O)N2CCN(C3CCC3)CC2)CC1 [Compound 516, 1-cyclobutyl-4-({4-[(2E)-3-(2,3-difluorophenyl)prop-2-enoyl]piperazin-1-yl}acetyl)piperazine] | > 90% | – | –
25 | COc1cc(/C=C/C(=O)N2CCN(CC(=O)N3CCN(C4CCC4)CC3)CC2)ccc1OCc1ccccc1 [Compound 471, 1-{(2E)-3-[4-(benzyloxy)-3-methoxyphenyl]prop-2-enoyl}-4-[2-(4-cyclobutylpiperazin-1-yl)-2-oxoethyl]piperazine] | > 90% | – | –
26 | Cc1cccc(OCC(=O)N2CCN(CC(=O)N3CCN(C4CCC4)CC3)CC2)c1C [Compound 503, 1-cyclobutyl-4-({4-[(2,3-dimethylphenoxy)acetyl]piperazin-1-yl}acetyl)piperazine] | > 90% | – | –
27 | Cc1ccc(Oc2ncccc2C(=O)N2CCN(CC(=O)N3CCN(C4CCC4)CC3)CC2)c(C)c1 [Compound 617, 1-cyclobutyl-4-[(4-{[2-(2,4-dimethylphenoxy)pyridin-3-yl]carbonyl}piperazin-1-yl)acetyl]piperazine] | – | > 90% | –
28 | Cc1ccc(C(=O)N2CCN(CC(=O)N3CCN(C4CCC4)CC3)CC2)cc1Br [Compound 292, 1-(3-bromo-4-methylbenzoyl)-4-[2-(4-cyclobutylpiperazin-1-yl)-2-oxoethyl]piperazine] | – | – | inhibition at 4 µM [3]: > 90%
29 | Cc1ccc(C(=O)N2CCN(CC(=O)N3CCN(C4CCC4)CC3)CC2)s1 [Compound 570, 1-cyclobutyl-4-({4-[(5-methyl-2-thienyl)carbonyl]piperazin-1-yl}acetyl)piperazine] | > 90% | – | –
30 | COc1ccc(OC)c(C(=O)N2CCN(CC(=O)N3CCN(C4CCC4)CC3)CC2)c1 [Compound 686, 1-cyclobutyl-4-{[4-(2,5-dimethoxybenzoyl)piperazin-1-yl]acetyl}piperazine] | – | > 90% | –
31 | CCSc1ncccc1C(=O)N1CCN(CC(=O)N2CCN(C3CCC3)CC2)CC1 [Compound 618, 1-cyclobutyl-4-[(4-{[2-(ethylthio)pyridin-3-yl]carbonyl}piperazin-1-yl)acetyl]piperazine] | – | > 90% | –
32 | O=C(Cc1ccccc1)N1CCN(CC(=O)N2CCN(C3CCC3)CC2)CC1 [Compound 798, 1-cyclobutyl-4-{[4-(phenylacetyl)piperazin-1-yl]acetyl}piperazine] | – | – | inhibition at 4 µM [4]: > 90%
33 | COc1ccc(/C=C/C(=O)N2CCN(CC(=O)N3CCN(C4CCC4)CC3)CC2)cc1 [Compound 530, 1-cyclobutyl-4-({4-[(2E)-3-(4-methoxyphenyl)prop-2-enoyl]piperazin-1-yl}acetyl)piperazine] | > 90% | – | –
34 | Nc1ccc(Cl)cc1C(=O)N1CCN(CC(=O)N2CCN(C3CCC3)CC2)CC1 [Compound 1151, 4-chloro-2-({4-[2-(4-cyclobutylpiperazin-1-yl)-2-oxoethyl]piperazin-1-yl}carbonyl)aniline] | – | – | inhibition at 4 µM (assay of Example 8, "+" in Ki of Table II): > 90%
35 | CCC(C)N1CCN(C(=O)CN2CCN(C(=O)C3CCCO3)CC2)CC1 (stereo not shown) [Compound 886, 1-sec-butyl-4-{[4-(tetrahydrofuran-2-ylcarbonyl)piperazin-1-yl]acetyl}piperazine] | – | – | inhibition at 4 µM [4]: > 90%
36 | O=C(Cc1ccc(F)cc1Cl)N1CCN(CC(=O)N2CCN(C3CCC3)CC2)CC1 [Compound 381, 1-[(2-chloro-4-fluorophenyl)acetyl]-4-[2-(4-cyclobutylpiperazin-1-yl)-2-oxoethyl]piperazine] | – | – | inhibition at 4 µM [3]: > 90%
37 | CCSc1ccc(C(=O)N2CCN(CC(=O)N3CCN(C4CCC4)CC3)CC2)cc1 [Compound 598, 1-cyclobutyl-4-({4-[4-(ethylthio)benzoyl]piperazin-1-yl}acetyl)piperazine] | – | > 90% | –
